Structures can show the parent of a compound that is named as a salt. Where two headings read alike, the source gives them in different places.
Legend:
[1] = tested on: LPS induced MCP-1 production; assay: LPS induced MCP-1 production from human whole blood; format: cell-based; conditions: LPS 200 ng/mL, 18-24 hours; for IC50: read-out: mean pIC50, LPS induced MCP-1 production (converted)
Source text: Measurement of LPS Induced MCP-1 Production from Human Whole Blood
Activation of monocytic cells by agonists of toll-like receptors such as bacterial lipopolysaccharide (LPS) results in production of key inflammatory mediators including MCP-1. Such pathways are widely considered to be central to the pathophysiology of a range of auto-immune and inflammatory disorders. Blood is collected in a tube containing Sodium heparin (Leo Pharmaceuticals) (10 units of heparin/mL of blood). 96-well compound plates containing 1 μL test sample in 100% DMSO were prepared (two replicates on account of donor variability). 130 μL of whole blood was dispensed into each well of the 96-well compound plates and incubated for 30 min at 37° C., 5% CO2. 10 μL of lipopolysaccharide (from Salmonella typhosa; L6386) made up in PBS (200 ng/mL final assay concentration) was added to each well of the compound plates. The plates were then placed in the humidified primary cell incubator for 18-24 hours at 37° C., 5% CO2. 140 μL of PBS was added to all wells of the compound plates containing blood. The plates were then sealed and centrifuged for 10 mins at 2500 rpm. 25 μL of cell supernatant was placed in a 96-well MSD plate pre-coated with human MCP-1 capture antibody. The plates were sealed and placed on a shaker at 600 rpm for 1 hour (r.t). 25 μL of Anti-human MCP-1 antibody labelled with MSD SULFO-TAG™ reagent is added to each well of the MSD plate (stock 50× was diluted 1:50 with Diluent 100, final assay concentration is 1 μg/mL). The plates were then re-sealed and shaken for another hour before washing with PBS. 150 μL of 2×MSD Read Buffer T (stock 4×MSD Read Buffer T was diluted 50:50 with de-ionised water) was then added to each well and the plates read on the MSD Sector Imager 6000. Concentration response curves for each compound were generated from the data and an pIC50 value was calculated.

[2] = molecular target: T1, BRD4 BD1 (Homo sapiens, UniProt O60885, Y390A); assay: TR-FRET binding assay, BRD4 BD1 (mutant protein); conditions: 10 nM mutated bromodomain protein, Alexa Fluor647 ligand at Kd, read-out: mean pIC50 in the BRD4 BD1 assay (converted)
T1 construct: BRD4 (1-477) (Y97A) and (Y390A); made in house; host or cells: E. coli (pET15b vector)
Procedure: (§1) Biological Data Time Resolved Fluorescence Resonance Energy Transfer (TR-FRET) Assay
(§2) Binding was assessed using a time resolved fluorescent resonance energy transfer binding assay. This utilises a 6 His purification tag at the N-terminal of the proteins as an epitope for an anti-6 His antibody labeled with Europium chelate (PerkinElmer AD0111) allowing binding of the Europium to the proteins which acts as the donor fluorophore.
(§3) In the absence of a competing compound, excitation of the Europium causes the donor to emit at λ618 nm which excites the Alexa labelled bromodomain binding compound leading to an increased energy transfer that is measurable at λ647 nM. In the presence of a sufficient concentration of a compound that can bind these proteins, the interaction is disrupted leading to a quantifiable drop in fluorescent resonance energy transfer.
The binding of compounds of the invention to Bromodomains BRD2, BRD3, BRD4 and BRDT was assessed using mutated proteins to detect differential binding to either Binding Domain 1 (BD1) or Binding Domain 2 (BD2) on the bromodomain. […] Therefore in the final assay conditions, binding of the fluoroligand to the mutated domain cannot be detected and subsequently the assay is suitable to determine the binding of compounds to the single non-mutated bromodomain. […]
All assay components were dissolved in buffer composition of 50 mM HEPES pH7.4, 50 mM NaCl, 5% Glycerol, 1 mM DTT and 1 mM CHAPS. […] Plates were then read on the Envision plate reader, (⋅ex=317 nm, donor ⋅em=615 nm; acceptor ⋅em=665 nm; Dichroic LANCE dual). Time resolved fluorescent intensity measurements were made at both emission wavelengths and the ratio of acceptor/donor was calculated and used for data analysis. […]

[3] = molecular target: T2, BRD4 BD2 (Homo sapiens, UniProt O60885, Y97A); assay: TR-FRET binding assay, BRD4 BD2 (mutant protein); conditions: 10 nM mutated bromodomain protein, Alexa Fluor647 ligand at Kd, read-out: mean pIC50 in the BRD4 BD2 assay (converted)
T2 construct: BRD4 (1-477) (Y97A) and (Y390A); made in house; host or cells: E. coli (pET15b vector)
Procedure: as §1, §2, §3
The binding of compounds of the invention to Bromodomains BRD2, BRD3, BRD4 and BRDT was assessed using mutated proteins to detect differential binding to either Binding Domain 1 (BD1) or Binding Domain 2 (BD2) on the bromodomain. […] Therefore in the final assay conditions, binding of the fluoroligand to the mutated domain cannot be detected and subsequently the assay is suitable to determine the binding of compounds to the single non-mutated bromodomain.
Recombinant Human Bromodomains [(BRD2 (1-473) (Y113A) and (Y386A), BRD3 (1-435) (Y73A) and (Y348A) BRD4 (1-477) (Y97A) and (Y390A) and BRDT (1-397) (Y66A) and (Y309A)] were expressed in E coli cells (in pET15b vector for BRD2/3/4 and in pET28a vector for BRDT) with a 6-His tag at the N-terminal. The His-tagged Bromodomain pellet was resuspended in 50 mM HEPES (pH7.5), 300 mM NaCl, 10 mM imidazole & 1 μl/ml protease inhibitor cocktail and extracted from the E coli cells using sonication and purified using a nickel sepharose high performance column, the proteins were washed and then eluted with a linear gradient of 0-500 mM imidazole with buffer 50 mM HEPES (pH7.5), 150 mM NaCl, 500 mM imidazole, over 20 column volumes. Final purification was completed by Superdex 200 prep grade size exclusion column. Purified protein was stored at −80° C. in 20 mM HEPES pH 7.5 and 100 mM NaCl.
All assay components were dissolved in buffer composition of 50 mM HEPES pH7.4, 50 mM NaCl, 5% Glycerol, 1 mM DTT and 1 mM CHAPS. The final concentration of bromodomain proteins were 10 nM and the Alexa Fluor647 ligand was at Kd. These components were premixed and 5 μl of this reaction mixture was added to all wells containing 50 nl of various concentrations of test compound or DMSO vehicle (0.5% DMSO final) in Greiner 384 well black low volume microtitre plates and incubated in dark for 30 minutes at rt. […] of detection mixture containing 1.5 nM final concentration anti-6His Europium chelate was added to all wells and a further dark incubation of at least 30 minutes was performed. Plates were then read on the Envision plate reader, (⋅ex=317 nm, donor ⋅em=615 nm; acceptor ⋅em=665 nm; Dichroic LANCE dual). Time resolved fluorescent intensity measurements were made at both emission wavelengths and the ratio of acceptor/donor was calculated and used for data analysis. All data was normalized to the mean of 16 high (inhibitor control—Example 11 of WO 2011/054846A1) and 16 low (DMSO) control wells on each plate. A four parameter curve fit of the following form was then applied: y=a+((b−a)/(1+(10^x/10^c)^d) Where ‘a’ is the minimum, […], ‘c’ is the pIC50 and […].

How did the IC50 [1] turn out when `COCC(COC)n1c(-c2cc(C)c(=O)n(C)c2)nc2cc(CN[C@H](C(=O)O)[C@@H](C)O)ccc21` [Example 66, (2S,3R)-2-(((1-(1,3-dimethoxypropan-2-yl)-2-(1,5-dimethyl-6-oxo-1,6-dihydropyridin-3-yl)-1H-benzo[d]imidazol-5-yl)methyl)amino)-3-hydroxybutanoic acid hydrochloride] was run?
Its IC50 is 1000 nM.

What about the IC50 [2] of the same compound?
Its IC50 is 200 nM.

What about the IC50 [3] of the same compound?
Its IC50 is 1260 nM.

With `Cc1cc(-c2nc3cc(CN[C@H](C(=O)O)[C@@H](C)O)ccc3n2CC2CCOCC2)cn(C)c1=O` [Example 68, (2S,3R)-2-(((2-(1,5-dimethyl-6-oxo-1,6-dihydropyridin-3-yl)-1-((tetrahydro-2H-pyran-4-yl)methyl)-1H-benzo[d]imidazol-5-yl)methyl)amino)-3-hydroxybutanoic acid hydrochloride] as the compound, how does the IC50 [1] read?
Its IC50 is 3980 nM.

What about the IC50 [2] of the same compound?
Its IC50 is 251 nM.

And the IC50 [3]?
Its IC50 is 631 nM.

Which IC50 ([1]; Homo sapiens) does the source give for `Cc1cc(-c2nc3cc(CN[C@H](C(=O)OC(C)C)[C@@H](C)O)ccc3n2CC2CCOCC2)cn(C)c1=O` [Example 303, (2S,3R)-isopropyl 2-(((2-(1,5-dimethyl-6-oxo-1,6-dihydropyridin-3-yl)-1-((tetrahydro-2H-pyran-4-yl)methyl)-1H-benzo[d]imidazol-5-yl)methyl)amino)-3-hydroxybutanoate] here?
Its IC50 is 25.1 nM.

How did the IC50 [1] turn out when `COCC(COC)n1c(-c2cc(C)c(=O)n(C)c2)nc2cc(CN[C@H](C(=O)OC(C)C)[C@@H](C)O)ccc21` [Example 305, (2S,3R)-Isopropyl 2-(((1-(1,3-dimethoxypropan-2-yl)-2-(1,5-dimethyl-6-oxo-1,6-dihydropyridin-3-yl)-1H-benzo[d]imidazole-5-yl)methyl)amino)-3-hydroxybutanoate] was run?
Its IC50 is 10 nM.

And the IC50 [2]?
The IC50 was 50.1 nM.

And the IC50 [3]?
The IC50 was 398 nM.

How did the “mean pIC50, LPS induced MCP-1 production” value [1] turn out when `Cc1cc(-c2nc3cc(CN[C@H](C(=O)OC(C)C)[C@@H](C)O)ccc3n2CC2CCOCC2)cn(C)c1=O` [edisylate salt of Example 303, 1,2-ethanedisulphonic acid salt of (2S,3R)-isopropyl 2-(((2-(1,5-dimethyl-6-oxo-1,6-dihydropyridin-3-yl)-1-((tetrahydro-2H-pyran-4-yl)methyl)-1H-benzo[d]imidazol-5-yl)methyl)amino)-3-hydroxybutanoate] was run?
The value was 7.5.

— patent publication US11053212B2, “Benzimidazole derivatives as bromodomain inhibitors” (GLAXOSMITHKLINE INTELLECTUAL PROPERTY DEVELOPMENT LIMITED, priority 2015, dated 2021)
